{"source": "patent US20170196927A1", "about": "“COMPOSITION FOR ARTHRITIS, MOBILITY AND DELAY AGEING” (Mars, Incorporated, priority 2014, published 2017)", "key": {"[1]": {"system": "cyclooxgenase-2 (COX-2)", "assay": "RNA expression of COX-2 (RT-PCR) in IL-1β stimulated RAC", "type": "cell-based, Rabbit", "details": "for Effect on COX2 expression (in words): IL-1β stimulated RAC; for COX2 Expression: relative RNA expression (untreated = 1.0), GAPDH reference, 24 h pre-treatment, IL-1β 10 ng/ml 48 h, green tea extract 50 μM, collagen 0.5 mg/ml, chondroitin 200 μg/ml", "procedure": "(§1) An in vitro study was run to evaluate the efficacy of a composition containing chondroitin, hydrolysed collagen and green tea extract on Rabbit Articular Chondrocytes (RAC). RAC were cultured in DMEM supplemented with 10% Fetal Calf Serum, glutamine and 1% penicillin/streptomycin (Gibco, Life Technologies AG, Switzerland) at 37° C. in an incubator with an atmosphere of 5% CO2.\n(§2) RAC were plated in 6 well plates (3×10^5 cells/cm2). The medium was replaced with fresh medium containing each compound chondroitin, hydrolysed collagen and green tea extract or a mixture of all three compounds for 24 hours prior to stimulation with IL-1β (10 ng/ml) (Merck Millipore, USA). RAC were then incubated for 48, hours after which RNA expression of cyclooxgenase-2 (COX-2), inducible isoform Nitric oxide Synthase (iNoS) and Matrix Metallopeptidase-13 (MMP13) was measured as markers of arthritis.\n(§3) NO and PGE2 production was measured using Cayman Chemicals (Bertin Pharma, France) following the manufacturer's protocol. NO production was estimated spectrophotometrically by measuring the accumulation of nitrites in the culture supernatants by Griess reaction using a standard curve prepared with sodium nitrite. PGE2 was estimated using a highly sensitive and specific Enzyme Immunoassay Kit. RNA extraction was performed by extracting RNA using the NucleoSpin™ RNA II Kit (Macherey-Nagel, Hoerdt, France) as per manufacturer's instructions. RNA was reverse-transcribed with SupersScript III (Life Technologies) and real-time polymerase chain reaction (RT-PCR) was performed with SYBR Select mix (Life Technologies). Primer sequences COX-2, iNoS and MMP13 was used to quantify the relative RNA expression. Primer sequence for GAPDH was used as the reference gene."}, "[2]": {"system": "inducible isoform Nitric oxide Synthase (iNoS)", "assay": "RNA expression of iNoS (RT-PCR) in IL-1β stimulated RAC", "type": "cell-based, Rabbit", "details": "for Effect on iNos expression (in words): IL-1β stimulated RAC; for iNoS Expression: relative RNA expression (untreated = 1.0), GAPDH reference, 24 h pre-treatment, IL-1β 10 ng/ml 48 h, green tea extract 50 μM, collagen 0.5 mg/ml, chondroitin 200 μg/ml", "procedure": "as §1, §2, §3"}, "[3]": {"system": "Matrix Metallopeptidase-13 (MMP13)", "assay": "RNA expression of MMP13 (RT-PCR) in IL-1β stimulated RAC", "type": "cell-based, Rabbit", "procedure": "as §1, §2\nNO and PGE2 production was measured using Cayman Chemicals (Bertin Pharma, France) following the manufacturer's protocol. NO production was estimated spectrophotometrically by measuring the accumulation of nitrites in the culture supernatants by Griess reaction using a standard curve prepared with sodium nitrite. PGE2 was estimated using a highly sensitive and specific Enzyme Immunoassay Kit. […] Primer sequences COX-2, iNoS and MMP13 was used to quantify the relative RNA expression. […]"}, "[4]": {"system": "Rabbit Articular Chondrocytes (RAC)", "assay": "Cellular viability of RAC (MTS assay and trypan blue exclusion)", "type": "cell-based", "procedure": "as §1\nCellular viability was measured using an MTS assay (Cell Titer 96™ MTS, Promega, France) as per manufacturer's instructions. Cells were also counted using a Malassez cell and cellular viability was assessed using trypan blue exclusion dye technique, which colours dead cells in blue.\nRabbit Articular Chondrocytes (RAC) were incubated with the different compounds separately or blended together to evaluate their cytotoxicity."}}, "note": "Like-named read-outs stand apart in the source and are kept apart here."}
{"substance": "Collagen", "values": [{"measurement": "Effect on COX2 expression (in words)", "setting": "[1]", "result": "decreases the expression"}, {"measurement": "COX2 Expression", "setting": "[1]", "result": 7.1}, {"measurement": "Effect on iNos expression (in words)", "setting": "[2]", "result": "decreases the expression"}, {"measurement": "iNoS Expression", "setting": "[2]", "result": 3.9}, {"measurement": "Effect on MMP13 expression (in words)", "setting": "[3]", "result": "decreases the expression"}, {"measurement": "Cellular toxicity (MTS measurements and Trypan blue exclusion)", "setting": "[4]", "result": "did not reveal any cellular toxicity"}]}
{"substance": "Chondroitin", "values": [{"measurement": "Effect on COX2 expression (in words)", "setting": "[1]", "result": "seems to have no effect"}, {"measurement": "COX2 Expression", "setting": "[1]", "result": 10.7}, {"measurement": "Effect on iNos expression (in words)", "setting": "[2]", "result": "seems to have no effect"}, {"measurement": "iNoS Expression", "setting": "[2]", "result": 5.3}, {"measurement": "Effect on MMP13 expression (in words)", "setting": "[3]", "result": "seems to have no effect"}, {"measurement": "Cellular toxicity (MTS measurements and Trypan blue exclusion)", "setting": "[4]; 24 and 48 hours of incubation, large range of concentration (data not shown)", "result": "did not reveal any cellular toxicity"}]}
